In PubChem BioAssay (NCI):
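In this assay, cells in 96-well plates receive the compound at five concentrations for 48 hours. Endpoints are linearly interpolated between the surrounding concentrations. GI50: concentration for 50% inhibition of growth. TGI: total growth inhibition.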

Columns and labels:
Assay in all cases: DTP human tumour cell line panel, 48 h
A498 renal = tested on: A498 renal
MCF7 breast = tested on: MCF7 breast
RPMI-8226 leukemia = tested on: RPMI-8226 leukemia
RXF 393 renal = tested on: RXF 393 renal
HOP-62 NSCLC = tested on: HOP-62 NSCLC
OVCAR-8 ovarian = tested on: OVCAR-8 ovarian
HOP-92 NSCLC = tested on: HOP-92 NSCLC
SK-OV-3 ovarian = tested on: SK-OV-3 ovarian
OVCAR-4 ovarian = tested on: OVCAR-4 ovarian
OVCAR-3 ovarian = tested on: OVCAR-3 ovarian

| SMILES | GI50 (A498 renal) | TGI (A498 renal) | GI50 (MCF7 breast) | TGI (MCF7 breast) | GI50 (RPMI-8226 leukemia) | TGI (RPMI-8226 leukemia) | GI50 (RXF 393 renal) | TGI (RXF 393 renal) | GI50 (HOP-62 NSCLC) | TGI (HOP-62 NSCLC) | GI50 (OVCAR-8 ovarian) | TGI (OVCAR-8 ovarian) | GI50 (HOP-92 NSCLC) | TGI (HOP-92 NSCLC) | GI50 (SK-OV-3 ovarian) | TGI (SK-OV-3 ovarian) | GI50 (OVCAR-4 ovarian) | TGI (OVCAR-4 ovarian) | GI50 (OVCAR-3 ovarian) | TGI (OVCAR-3 ovarian) |
| --- | --- | --- | --- | --- | --- | --- | --- | --- | --- | --- | --- | --- | --- | --- | --- | --- | --- | --- | --- | --- |
| COc1ccc(-c2n[nH]nc2-c2csc3ccccc23)cc1OC | 2.96 µM | 12.1 µM | 1.45 µM | 15.1 µM | 3.64 µM | 59 µM | 2.11 µM | 6.71 µM | 2.18 µM | 24.3 µM | 4.24 µM | 39.1 µM | 0.922 µM | 6.69 µM | 2.37 µM | 19.3 µM | 6.33 µM | > 100 µM | 1.94 µM | 7.63 µM |
| COCCOC(=O)C1=C(C)NC2=C(C(=O)CC(c3ccccc3OC)C2)C1c1cccc(O)c1 (stereo unspecified) | 10.2 µM | 25.9 µM | 4.31 µM | 72.4 µM | 4.01 µM | 31.4 µM | 14.1 µM | 36.4 µM | 5.84 µM | 44.3 µM | 11.3 µM | 34.9 µM | 1.04 µM | 15.4 µM | 7.77 µM | 32.5 µM | 8.98 µM | > 80.5 µM | 9.13 µM | 23.9 µM |
| CCC(Sc1nnc2c3ccccc3n(CC)c2n1)C(=O)Nc1ccccc1OC (stereo unspecified) | 2.2 µM | 6.77 µM | > 89.9 µM | > 100 µM | 4.35 µM | > 72.8 µM | 64 µM | > 100 µM | 3.99 µM | > 71.9 µM | > 100 µM | > 100 µM | 65.5 µM | > 100 µM | > 100 µM | > 100 µM | > 75.7 µM | > 100 µM | 8.49 µM | > 79.4 µM |
| O=C1OC(c2ccc(O)c(-c3ccccc3)c2)(c2ccc(O)c(-c3ccccc3)c2)c2c(Cl)c(Cl)c(Cl)c(Cl)c21 | – | > 100 µM | – | > 100 µM | – | > 100 µM | – | > 100 µM | – | > 100 µM | – | > 100 µM | – | > 100 µM | – | > 100 µM | – | > 100 µM | – | > 100 µM |
| O=C(Nc1cc(C(F)(F)F)ccc1F)Nc1n[nH]c2ccccc12 | > 100 µM | > 100 µM | 18.2 µM | > 100 µM | > 100 µM | > 100 µM | > 100 µM | > 100 µM | > 100 µM | > 100 µM | > 100 µM | > 100 µM | > 100 µM | > 100 µM | > 100 µM | > 100 µM | > 100 µM | > 100 µM | > 100 µM | > 100 µM |
| C=CC1CC12C(=O)C1OC2(C)C2C(=O)c3c(ccc4c3ccc3ccccc34)C(=O)C12 (stereo unspecified) | – | – | 34.2 µM | > 100 µM | 12 µM | > 100 µM | 25 µM | 83 µM | > 100 µM | > 100 µM | 64.6 µM | > 100 µM | 34.4 µM | > 100 µM | > 100 µM | > 100 µM | > 100 µM | > 100 µM | – | – |
| O=C(O)C1C2CC3C(OC(=O)C31)C2Br (stereo unspecified) | – | > 100 µM | – | > 100 µM | – | > 100 µM | – | > 100 µM | – | > 100 µM | – | > 100 µM | – | > 100 µM | – | > 100 µM | – | > 100 µM | – | > 100 µM |
| CCCCCCCCCCCCCCCc1cc(O)ccc1N | 21.7 µM | 75.3 µM | 23 µM | > 100 µM | 0.18 µM | 18.8 µM | 18.5 µM | > 84.6 µM | > 100 µM | > 100 µM | 43.5 µM | > 100 µM | 12.4 µM | 93.7 µM | 31.7 µM | > 76.4 µM | 1.23 µM | 3.77 µM | 5.1 µM | > 27.9 µM |
| O=C1/C(=C/c2ccccc2Cl)N=C(c2ccccc2)N1Cc1ccco1 | 24.3 µM | 76.6 µM | 18.3 µM | > 100 µM | 25.4 µM | > 100 µM | 16.4 µM | 93 µM | > 100 µM | > 100 µM | > 100 µM | > 100 µM | 51.9 µM | > 100 µM | > 100 µM | > 100 µM | – | – | 26.9 µM | > 100 µM |
| CCOC(=O)CC1(O)C=CC(=O)C=C1 | 3.09 mg/L | 5.26 mg/L | 0.824 mg/L | 2.59 mg/L | 1.24 mg/L | 28.4 mg/L | 0.666 mg/L | 1.75 mg/L | 2.82 mg/L | 5.29 mg/L | 0.425 mg/L | 1.13 mg/L | 3.22 mg/L | 5.44 mg/L | 1.71 mg/L | 5.53 mg/L | 2.21 mg/L | 4.44 mg/L | 0.738 mg/L | 2.16 mg/L |
| COc1ccc2c(c1)CC[C@@H]1[C@@H]2CC[C@@]2(C)[C@H]1CC1(CCCCC1)[C@@H]2O | 16.7 µM | 32 µM | 18.4 µM | 37.5 µM | 2.81 µM | 9.35 µM | 4.68 µM | 29.2 µM | 18.3 µM | 34.3 µM | 19 µM | 41.5 µM | 16 µM | 33 µM | 21.6 µM | 41.3 µM | 13.9 µM | 28.7 µM | 15.1 µM | 31.1 µM |
| COc1cc(/C=C/C(C)=O)ccc1OP(=O)(O)O | – | > 100 µM | – | > 100 µM | – | > 100 µM | – | > 100 µM | – | > 100 µM | – | > 100 µM | – | > 100 µM | – | > 100 µM | – | > 100 µM | – | > 100 µM |
| Brc1ccc([I+]c2ccc(Br)cc2)cc1 | 1.97 µM | 10.7 µM | 0.825 µM | 10.2 µM | 0.55 µM | 10.5 µM | 2.67 µM | 11.5 µM | – | – | 1.08 µM | 4.01 µM | 0.822 µM | 5.69 µM | 1.5 µM | 3.12 µM | 1.5 µM | 10.6 µM | 1.19 µM | 3.06 µM |
| CCOc1ccccc1/C=C1\NC(=O)N(/C=C2\C(=O)Oc3ccccc3C2=O)C1=O | – | – | – | > 100 µM | – | – | – | > 100 µM | – | > 100 µM | – | > 100 µM | – | 67.9 µM | – | > 100 µM | – | > 100 µM | – | > 100 µM |
| CC(=O)O[C@@H]1CO[C@H]2O[C@H]3[C@@H](C(C=O)=C[C@H](O)[C@@H]4C5=C(C(C)C)CC[C@]5(C)CC[C@@]34C)[C@@]2(O)C1=O | – | 1.96 µM | – | 1.69 µM | – | 1.6 µM | – | 0.362 µM | – | 1.82 µM | – | 0.52 µM | – | 0.554 µM | – | – | – | 0.943 µM | – | 0.278 µM |
| CN(C)CCNc1ccc([N+](=O)[O-])c2nc3ccccc3c(N)c12 | – | – | – | > 10 µM | – | 1.51 µM | – | 4.32 µM | – | > 10 µM | – | > 10 µM | – | 7.71 µM | – | 1.33 µM | – | 3.58 µM | – | 3.32 µM |
| CCCCC(=O)N/N=C/c1cc(I)cc(I)c1O | 13.8 µM | 44.2 µM | 2.72 µM | 14.6 µM | 3.95 µM | 30.1 µM | 5.39 µM | 27.2 µM | 3.67 µM | 19.8 µM | 2.26 µM | 13.3 µM | – | – | 3.4 µM | 20.7 µM | 0.918 µM | 12.7 µM | 2.9 µM | 16.9 µM |
| Nc1ccc2c(c1)C(=O)c1c(F)cccc1-2 | – | > 100 µM | – | 41.7 µM | – | > 100 µM | – | > 100 µM | – | > 100 µM | – | > 100 µM | – | 93.3 µM | – | > 100 µM | – | – | – | > 100 µM |
| COc1ccc2[nH]cc(-c3nc(-c4cn(C)c5ccncc45)cs3)c2c1 | 8.86 µM | 21.5 µM | 1.81 µM | 3.65 µM | – | – | 1.83 µM | 3.34 µM | 1.92 µM | 3.63 µM | 2.19 µM | 4.94 µM | 1.9 µM | 3.63 µM | 19.4 µM | 33.7 µM | 2.14 µM | 4.51 µM | 1.85 µM | 3.41 µM |
| Nc1cc(-c2ccccc2)ccc1O | 22.7 µM | > 100 µM | > 100 µM | > 100 µM | – | – | > 100 µM | > 100 µM | > 100 µM | > 100 µM | > 100 µM | > 100 µM | > 100 µM | > 100 µM | > 100 µM | > 100 µM | 36.5 µM | > 100 µM | 68.8 µM | > 100 µM |
| COC(=O)C1=Nc2c(C)nn(-c3ccccc3)c2N=C(c2ccc(C)cc2)C1 | – | – | – | > 10 µM | – | > 10 µM | – | – | – | > 10 µM | – | > 10 µM | – | > 10 µM | – | > 10 µM | – | > 10 µM | – | > 10 µM |
| O=C1Nc2ccccc2C1Cc1ccccc1 (stereo unspecified) | – | > 100 µM | – | > 100 µM | – | > 100 µM | – | – | – | > 100 µM | – | > 100 µM | – | > 100 µM | – | > 100 µM | – | > 100 µM | – | > 100 µM |
| COC(=O)c1ccccc1NC(=O)/C(=N\NC(C)(C)C)C(C#N)c1nc(-c2ccc([N+](=O)[O-])cc2)cs1 (stereo unspecified) | – | > 100 µM | – | > 100 µM | – | > 100 µM | – | > 100 µM | – | – | – | > 100 µM | – | > 100 µM | – | > 100 µM | – | > 100 µM | – | > 100 µM |
| C=C=C(C)[Si](C)(C)C | – | > 100 µM | – | > 100 µM | – | > 100 µM | – | > 100 µM | – | > 100 µM | – | > 100 µM | – | – | – | > 100 µM | – | > 100 µM | – | > 100 µM |
